The text below walks through data of US6063778A, “Cephalosporin derivatives and processes for the preparation thereof” (Il-Dong Pharm. Co., Ltd., priority 1995, dated 2000).

The nature of one data set: Acute toxicity study. It counts as in vivo. The settings on record: mouse, in vivo. On the procedure:
In order to illustrate usefulness of the compounds of the present invention, acute toxicity test of the compounds synthesized in the above Examples were carried out. Each dose of the compounds dissolved in saline and buffer solution (PH=7.0) was administered by intravenous or subcutaneous injection. Mortalities of the animals was recorded seven days latter.
.asterisk-pseud. Mouse: Male ICR strain, 4 weeks

For data set [1], the system named is Enterobacter cloace 1321E. The data set can be described thus: MIC by agar dilution, in vitro activity test. As to conditions: 37° C., 18 to 20 hours, read-out: Minimal Inhibitory Concentration (MIC). It counts as cell-based. On the procedure:
(§1) These MIC values were determined by agar dilution method: that is, two-fold dilutions of each of the test compounds were made and dispersed in a Mueller-Hinton Broth medium. Standard test strain which had the 10^6 CFU per ml was inoculated on the medium, and was incubated at 37° C. for 18 to 20 hours.
A general note: In agar dilution the substance is mixed into plates at graded concentrations.

In a further data set the test system is Enterobacter cloace P99. The data set can be described thus: MIC by agar dilution, in vitro activity test. It counts as cell-based. The settings on record: P99, 20 h, read-out: Minimal Inhibitory Concentration (MIC). On the procedure: as §1
The subject of the next data set is Escherichia coli 078. As to the kind of experiment: MIC by agar dilution, in vitro activity test. It counts as cell-based. As to conditions: 37° C., 18 to 20 hours, read-out: Minimal Inhibitory Concentration (MIC). The protocol: as §1
Another data set has as its system Escherichia coli 1507E. As to the kind of experiment: MIC by agar dilution, in vitro activity test. It counts as cell-based. The settings on record: Escherichia coli 1507E; agar dilution, 37° C., 18 to 20 hours; read-out: Minimal Inhibitory Concentration (MIC). The protocol: as §1
Another data set has as its system Escherichia coli DC 0. The data set can be described thus: MIC by agar dilution, in vitro activity test. It counts as cell-based. The settings on record: DC0, 37° C., 18 to 20 hours, read-out: Minimal Inhibitory Concentration (MIC). On the procedure:
as §1

A further data set has as its system Escherichia coli DC 2. The data set can be described thus: MIC by agar dilution, in vitro activity test. It counts as cell-based. As to conditions: DC2, 37° C., 18 to 20 hours, read-out: Minimal Inhibitory Concentration (MIC). The protocol:
as §1

The test system of a further data set is Escherichia coli TEM. The data set can be described thus: MIC by agar dilution, in vitro activity test. It counts as cell-based. The settings on record: 20 h, read-out: Minimal Inhibitory Concentration (MIC). On the procedure:
as §1

The test system of data set [2] is Klebsiella aerogenes 1082E. As to the kind of experiment: MIC by agar dilution, in vitro activity test. It counts as cell-based. As to conditions: 37° C., 18 to 20 hours, read-out: Minimal Inhibitory Concentration (MIC). The protocol: as §1
Data set [3] deals with Klebsiella aerogenes 1522E. As to the kind of experiment: MIC by agar dilution, in vitro activity test. It counts as cell-based. The settings on record: Klebsiella aerogenes 1522E; agar dilution, 37° C., 18 to 20 hours; read-out: Minimal Inhibitory Concentration (MIC). On the procedure:
as §1

Data set [4] deals with Pseudomonas aeruginosa 1592E. The data set can be described thus: MIC by agar dilution, in vitro activity test. It counts as cell-based. As to conditions: 37° C., 18 to 20 hours, read-out: Minimal Inhibitory Concentration (MIC). The protocol:
as §1

Data set [5] deals with Pseudomonas aeruginosa 1771M. The data set can be described thus: MIC by agar dilution, in vitro activity test. It counts as cell-based. The settings on record: 20 h, read-out: Minimal Inhibitory Concentration (MIC). The protocol:
as §1

The subject of data set [6] is Pseudomonas aeruginosa 9027. As to the kind of experiment: MIC by agar dilution, in vitro activity test. It counts as cell-based. The settings on record: 37° C., 18 to 20 hours, read-out: Minimal Inhibitory Concentration (MIC). The protocol:
as §1

Data set [7] has as its system Pseudomonas aeruginosa 9071. As to the kind of experiment: MIC by agar dilution, in vitro activity test. It counts as cell-based. The settings on record: 37° C., 18 to 20 hours, read-out: Minimal Inhibitory Concentration (MIC). On the procedure: as §1
For the next data set, the system named is Salmonella typhimurium. The data set can be described thus: MIC by agar dilution, in vitro activity test. It counts as cell-based. The settings on record: Salmonella enterica, 37° C., 18 to 20 hours, read-out: Minimal Inhibitory Concentration (MIC). The protocol:
as §1

In data set [8] the test system is Staphylococcus aureus 285. The data set can be described thus: MIC by agar dilution, in vitro activity test. It counts as cell-based. As to conditions: 37° C., 18 to 20 hours, read-out: Minimal Inhibitory Concentration (MIC). The protocol: as §1
Data set [9] has as its system Staphylococcus aureus 503. As to the kind of experiment: MIC by agar dilution, in vitro activity test. It counts as cell-based. The settings on record: 37° C., 18 to 20 hours, read-out: Minimal Inhibitory Concentration (MIC). The protocol:
as §1

Data set [10] deals with Staphylococcus aureus SG511. As to the kind of experiment: MIC by agar dilution, in vitro activity test. It counts as cell-based. The settings on record: 37° C., 18 to 20 hours, read-out: Minimal Inhibitory Concentration (MIC). On the procedure: as §1
The subject of data set [11] is Streptococcus faecium MD 8b. As to the kind of experiment: MIC by agar dilution, in vitro activity test. It counts as cell-based. As to conditions: Enterococcus faecium, MD8B, 20 h, read-out: Minimal Inhibitory Concentration (MIC). On the procedure: as §1
For data set [12], the system named is Streptococcus pyogenes 71A. The data set can be described thus: MIC by agar dilution, in vitro activity test. The settings on record: 37° C., 18 to 20 hours, read-out: Minimal Inhibitory Concentration (MIC). It counts as cell-based. The protocol:
as §1

The test system of data set [13] is Streptococcus pyogenes 77A. As to the kind of experiment: MIC by agar dilution, in vitro activity test. It counts as cell-based. The settings on record: 37° C., 18 to 20 hours, read-out: Minimal Inhibitory Concentration (MIC). The protocol: as §1
In data set [14] the test system is Pseudomonas aeruginosa 1771. The data set can be described thus: MIC by agar dilution, in vitro activity test. It counts as cell-based. As to conditions: 37° C., 18 to 20 hours, read-out: Minimal Inhibitory Concentration (MIC). The protocol: These MIC values were determined by agar dilution method: that is, two-fold dilutions of each of the test compounds were made and dispersed in a Mueller-Hinton Broth medium.

Data set [15] concerns Staphylococcus aureus, Escherichia coli and Pseudomonas aeruginosa. The data set can be described thus: MIC by agar dilution, comparison in words. It counts as cell-based. As to conditions: against Staphylococcus aureus, vs Cefotaxime. The protocol:
as §1

[16] abbreviates: iv, i.v, male ICR mouse, 4 weeks, mortality at seven days, read-out: LD50 i.v.
Where [17] appears, read: iv, intravenous routes, read-out: acute toxicity in intravenous routes.
Setting [18] is: sc, s.c, male ICR mouse, 4 weeks, mortality at seven days, read-out: LD50 s.c.

In brackets after ≈: the same amount, converted by molar mass. Where two headings read alike, the source gives them in different places.

Turning to `CO/N=C(\C(=O)N[C@@H]1C(=O)N2C(C(=O)[O-])=C(/C=C/C[N+](C)(C)Cc3nc[nH]c3C)CS[C@H]12)c1csc(N)n1` [Example 2, 7β-[(Z)-2-(2-aminothiazol-4-yl)-2-methoxyiminoacetamido]-3-[(E)-3-[(5-methylimidazol-4-yl)-methyldimethylammonio]-1-propen-1-yl]3-cephem-4-carboxylate], the figures for the LD50 at 168 h in the data set “Acute toxicity study” (setting [16]), in “Acute toxicity study” (setting [17]) and in “Acute toxicity study” (setting [18]) were over 2000 mg/kg, over 2000 mg/kg and over 3000 mg/kg, respectively.
Consider `CO/N=C(\C(=O)N[C@@H]1C(=O)N2C(C(=O)O)=C(COC(C)=O)CS[C@H]12)c1csc(N)n1` [CTX, Cefotaxime, reference compound], for which the MIC is 0.05 µg/mL (≈ 0.11 µM) in [1]; over 100 µg/mL in the data set on Enterobacter cloace P99; 0.025 µg/mL (≈ 0.0549 µM) in the data set with Escherichia coli 078; 0.025 µg/mL (≈ 0.0549 µM) in the data set on Escherichia coli 1507E; 0.012 µg/mL (≈ 0.0263 µM) in the data set with Escherichia coli DC 0; 0.05 µg/mL (≈ 0.11 µM) with Escherichia coli DC 2. Further, the MIC was 0.05 µg/mL (≈ 0.11 µM) in the data set with Escherichia coli TEM; 6.3 µg/mL (≈ 13.8 µM) in data set [2]; 0.1 µg/mL (≈ 0.22 µM) in [3]; 25 µg/mL (≈ 54.9 µM) in [4]; 0.4 µg/mL (≈ 0.878 µM) in [5]; 25 µg/mL (≈ 54.9 µM) in data set [6]. Besides, the MIC was 25 µg/mL (≈ 54.9 µM) in [7]; 0.1 µg/mL (≈ 0.22 µM) with Salmonella typhimurium; 1.6 µg/mL (≈ 3.51 µM) in data set [8]; 3.1 µg/mL (≈ 6.81 µM) in [9]; 1.6 µg/mL (≈ 3.51 µM) in data set [10]; over 100 µg/mL in [11]. The MIC in [12] and in data set [13] was 0.012 µg/mL (≈ 0.0263 µM) in each case.
Consider `CO/N=C(\C(=O)N[C@@H]1C(=O)N2C(C(=O)[O-])=C(C[n+]3cccc4c3CCC4)CS[C@H]12)c1csc(N)n1` [CPR, Cefpirome, reference compound], for which the MIC in data set [1] was 0.025 µg/mL (≈ 0.0486 µM); in the data set on Enterobacter cloace P99, 3.1 µg/mL (≈ 6.02 µM); in the data set with Escherichia coli 078 it was 0.025 µg/mL (≈ 0.0486 µM); in the data set with Escherichia coli 1507E, 0.025 µg/mL (≈ 0.0486 µM); in the data set on Escherichia coli DC 0, 0.012 µg/mL (≈ 0.0233 µM); in the data set with Escherichia coli DC 2 it was 0.1 µg/mL (≈ 0.194 µM). In addition, the MIC was 0.05 µg/mL (≈ 0.0972 µM) in the data set with Escherichia coli TEM; 6.3 µg/mL (≈ 12.2 µM) in data set [2]; 0.1 µg/mL (≈ 0.194 µM) in data set [3]; 3.1 µg/mL (≈ 6.02 µM) in data set [4]; 0.8 µg/mL (≈ 1.55 µM) in data set [5]; 6.3 µg/mL (≈ 12.2 µM) in data set [6]. For the same compound, the MIC in data set [7] was found to be 6.3 µg/mL (≈ 12.2 µM); with Salmonella typhimurium it was 0.1 µg/mL (≈ 0.194 µM); in [8], 0.4 µg/mL (≈ 0.777 µM); in data set [9] it was 0.8 µg/mL (≈ 1.55 µM); in data set [10], 0.8 µg/mL (≈ 1.55 µM); in data set [11] it was 100 µg/mL (≈ 194 µM). Besides, the MIC in [12] was found to be 0.012 µg/mL (≈ 0.0233 µM); in [13], 0.012 µg/mL (≈ 0.0233 µM); in data set [14], 3.1 µg/mL (≈ 6.02 µM).
With `CC[N+](C)(CC=CC(N)=O)C/C=C/C1=C(C(=O)[O-])N2C(=O)[C@@H](NC(=O)/C(=N\OC)c3csc(N)n3)[C@H]2SC1` (stereo partly drawn) [Example 6, 7β-[(Z)-2-(2-aminothiazol-4-yl)-2-methoxyiminoacetamido]-3-[(E)-3-[(1-carbamoyl-1-propen-3-yl)-3-ethylmethylammonio]-1-propen-1-yl]3-cephem-4-carboxylate], the MIC in [1] was 0.025 µg/mL (≈ 0.0444 µM); in the data set with Enterobacter cloace P99, 1.6 µg/mL (≈ 2.84 µM); with Escherichia coli 078 it was 0.12 µg/mL (≈ 0.213 µM); in the data set on Escherichia coli 1507E it was 0.05 µg/mL (≈ 0.0887 µM); in the data set on Escherichia coli DC 0 it was under 0.006 µg/mL; in the data set with Escherichia coli DC 2, 0.05 µg/mL (≈ 0.0887 µM). Further, the MIC in the data set with Escherichia coli TEM is 0.05 µg/mL (≈ 0.0887 µM); in data set [2], 3.1 µg/mL (≈ 5.5 µM); in [3], 0.1 µg/mL (≈ 0.177 µM); in data set [4], 3.1 µg/mL (≈ 5.5 µM); in [5], 0.4 µg/mL (≈ 0.71 µM); in data set [6], 6.3 µg/mL (≈ 11.2 µM). The MIC was 0.1 µg/mL (≈ 0.177 µM) in the data set on Salmonella typhimurium; 0.4 µg/mL (≈ 0.71 µM) in [8]; 0.8 µg/mL (≈ 1.42 µM) in [9]; 0.8 µg/mL (≈ 1.42 µM) in data set [10]; over 100 µg/mL in [11]; 0.012 µg/mL (≈ 0.0213 µM) in [13]. In addition, the MIC in data set [14] came out at 3.1 µg/mL (≈ 5.5 µM). In addition, in data set [15], the “MICs compared with Cefotaxime” value is given as “superior to that of Cefotaxime”. In addition, the LD50 at 168 h in the data set “Acute toxicity study” (setting [16]) was over 3000 mg/kg; in “Acute toxicity study” (setting [17]), over 2000 mg/kg; in “Acute toxicity study” (setting [18]), over 3000 mg/kg.
